Results published in PubChem BioAssay (NCI).
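Tested at 5 concentrations; 48 h exposure; 96-well plates; endpoints linearly interpolated, else capped at highest concentration. Abbreviation: GI50, concentration required for 50% inhibition of growth. Definition used: TGI = concentration required for complete inhibition of growth.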

What was measured:
Experiment in all cases: NCI-60 cell line screen, 48 h
HCT-116 colon = system: HCT-116 colon
BT-549 breast = system: BT-549 breast
SNB-19 CNS = system: SNB-19 CNS
IGROV1 ovarian = system: IGROV1 ovarian
HCT-15 colon = system: HCT-15 colon
SNB-75 CNS = system: SNB-75 CNS
MDA-MB-435 = system: MDA-MB-435
TK-10 renal = system: TK-10 renal
NCI-H460 lung = system: NCI-H460 lung
EKVX NSCLC = system: EKVX NSCLC
UACC-62 melanoma = system: UACC-62 melanoma
K-562 leukemia = system: K-562 leukemia
SK-MEL-5 melanoma = system: SK-MEL-5 melanoma
A549 NSCLC = system: A549 NSCLC
KM12 colon = system: KM12 colon
NCI-H23 lung = system: NCI-H23 lung
MCF7 breast = system: MCF7 breast
NCI/ADR-RES ovarian = system: NCI/ADR-RES ovarian
SF-539 CNS = system: SF-539 CNS
SK-MEL-2 melanoma = system: SK-MEL-2 melanoma
LOX IMVI melanoma = system: LOX IMVI melanoma
MALME-3M melanoma = system: MALME-3M melanoma
HOP-92 NSCLC = system: HOP-92 NSCLC
M14 melanoma = system: M14 melanoma
RPMI-8226 leukemia = system: RPMI-8226 leukemia
SK-OV-3 ovarian = system: SK-OV-3 ovarian
786-0 renal = system: 786-0 renal
OVCAR-8 ovarian = system: OVCAR-8 ovarian
HT29 colon = system: HT29 colon
OVCAR-5 ovarian = system: OVCAR-5 ovarian
COLO 205 colon = system: COLO 205 colon
SR leukemia = system: SR leukemia
HOP-62 NSCLC = system: HOP-62 NSCLC
PC-3 prostate = system: PC-3 prostate
U251 CNS = system: U251 CNS
SF-268 CNS = system: SF-268 CNS
MDA-MB-231 breast = system: MDA-MB-231 breast
SK-MEL-28 melanoma = system: SK-MEL-28 melanoma
SF-295 CNS = system: SF-295 CNS
HL-60(TB) leukemia = system: HL-60(TB) leukemia
ACHN renal = system: ACHN renal
CCRF-CEM leukemia = system: CCRF-CEM leukemia
MDA-MB-468 breast = system: MDA-MB-468 breast
OVCAR-4 ovarian = system: OVCAR-4 ovarian
NCI-H522 lung = system: NCI-H522 lung
DU-145 prostate = system: DU-145 prostate
SW-620 colon = system: SW-620 colon
RXF 393 renal = system: RXF 393 renal
A498 renal = system: A498 renal
OVCAR-3 ovarian = system: OVCAR-3 ovarian
UACC-257 melanoma = system: UACC-257 melanoma
MOLT-4 leukemia = system: MOLT-4 leukemia
T-47D breast = system: T-47D breast
HCC-2998 colon = system: HCC-2998 colon
NCI-H226 lung = system: NCI-H226 lung
SN12C renal = system: SN12C renal
UO-31 renal = system: UO-31 renal
CAKI-1 renal = system: CAKI-1 renal
HS 578T breast = system: HS 578T breast

C#CCN(C)CCCOc1ccc(N(C)C(=O)c2cc(C(C)C)c(O)cc2O)cc1Cl
GI50 (HCT-116 colon): 0.0889 µM
TGI (HCT-116 colon): 13.3 µM
GI50 (BT-549 breast): 1.09 µM
TGI (BT-549 breast): 15.4 µM
GI50 (SNB-19 CNS): 0.435 µM
TGI (SNB-19 CNS): 15.4 µM
GI50 (IGROV1 ovarian): 0.172 µM
TGI (IGROV1 ovarian): 14.7 µM
GI50 (HCT-15 colon): 0.0827 µM
TGI (HCT-15 colon): 12.7 µM
GI50 (SNB-75 CNS): 0.977 µM
TGI (SNB-75 CNS): 17.8 µM
GI50 (MDA-MB-435): 0.133 µM
TGI (MDA-MB-435): 12.4 µM
GI50 (TK-10 renal): 0.323 µM
TGI (TK-10 renal): 16.8 µM
GI50 (NCI-H460 lung): 0.0679 µM
TGI (NCI-H460 lung): 10.9 µM
GI50 (EKVX NSCLC): 0.526 µM
TGI (EKVX NSCLC): 12.7 µM
GI50 (UACC-62 melanoma): 0.168 µM
TGI (UACC-62 melanoma): 0.913 µM
GI50 (K-562 leukemia): 0.0788 µM
TGI (K-562 leukemia): 19.4 µM
GI50 (SK-MEL-5 melanoma): 0.357 µM
TGI (SK-MEL-5 melanoma): 2.02 µM
GI50 (A549 NSCLC): 0.188 µM
TGI (A549 NSCLC): 15.4 µM
GI50 (KM12 colon): 0.105 µM
TGI (KM12 colon): 10.9 µM
GI50 (NCI-H23 lung): 0.298 µM
TGI (NCI-H23 lung): 15 µM
GI50 (MCF7 breast): 0.0522 µM
TGI (MCF7 breast): 15.4 µM
GI50 (NCI/ADR-RES ovarian): 0.305 µM
TGI (NCI/ADR-RES ovarian): 8.93 µM
GI50 (SF-539 CNS): 0.325 µM
TGI (SF-539 CNS): 12.9 µM
GI50 (SK-MEL-2 melanoma): 1.72 µM
TGI (SK-MEL-2 melanoma): 18.6 µM
GI50 (LOX IMVI melanoma): 0.129 µM
TGI (LOX IMVI melanoma): 0.303 µM
GI50 (MALME-3M melanoma): 0.195 µM
TGI (MALME-3M melanoma): 2.23 µM
GI50 (HOP-92 NSCLC): 0.328 µM
TGI (HOP-92 NSCLC): 3.59 µM
GI50 (M14 melanoma): 0.406 µM
TGI (M14 melanoma): 13.8 µM
GI50 (RPMI-8226 leukemia): 0.266 µM
TGI (RPMI-8226 leukemia): 20.5 µM
GI50 (SK-OV-3 ovarian): 0.0534 µM
TGI (SK-OV-3 ovarian): 12.9 µM
GI50 (786-0 renal): 2.6 µM
TGI (786-0 renal): 18.7 µM
GI50 (OVCAR-8 ovarian): 0.202 µM
TGI (OVCAR-8 ovarian): 21 µM
GI50 (HT29 colon): 3.27 µM
TGI (HT29 colon): 13.9 µM
GI50 (OVCAR-5 ovarian): 0.477 µM
TGI (OVCAR-5 ovarian): 16 µM
GI50 (COLO 205 colon): 2.83 µM
TGI (COLO 205 colon): 12.5 µM
GI50 (SR leukemia): 0.0409 µM
TGI (SR leukemia): 19.4 µM
GI50 (HOP-62 NSCLC): 0.249 µM
TGI (HOP-62 NSCLC): 19.6 µM
GI50 (PC-3 prostate): 0.161 µM
TGI (PC-3 prostate): 16 µM
GI50 (U251 CNS): 0.283 µM
TGI (U251 CNS): 16 µM
GI50 (SF-268 CNS): 1.32 µM
TGI (SF-268 CNS): 25.9 µM
GI50 (MDA-MB-231 breast): 0.213 µM
TGI (MDA-MB-231 breast): 10.9 µM
GI50 (SK-MEL-28 melanoma): 0.386 µM
TGI (SK-MEL-28 melanoma): 13.3 µM
GI50 (SF-295 CNS): 0.348 µM
TGI (SF-295 CNS): 12.7 µM
GI50 (HL-60(TB) leukemia): 0.0533 µM
TGI (HL-60(TB) leukemia): 9.1 µM
GI50 (ACHN renal): 0.0963 µM
TGI (ACHN renal): 13.5 µM
GI50 (CCRF-CEM leukemia): 0.0625 µM
TGI (CCRF-CEM leukemia): 13.3 µM
GI50 (MDA-MB-468 breast): 0.0962 µM
TGI (MDA-MB-468 breast): 0.462 µM
GI50 (OVCAR-4 ovarian): 2.01 µM
TGI (OVCAR-4 ovarian): 22.2 µM
GI50 (NCI-H522 lung): 0.165 µM
TGI (NCI-H522 lung): 14.1 µM
GI50 (DU-145 prostate): 0.0592 µM
TGI (DU-145 prostate): 18.2 µM
GI50 (SW-620 colon): 0.102 µM
TGI (SW-620 colon): 13.9 µM
GI50 (RXF 393 renal): 0.685 µM
TGI (RXF 393 renal): 13.8 µM
GI50 (A498 renal): 0.642 µM
TGI (A498 renal): 16.5 µM
GI50 (OVCAR-3 ovarian): 0.509 µM
TGI (OVCAR-3 ovarian): 16.8 µM
GI50 (UACC-257 melanoma): 0.521 µM
TGI (UACC-257 melanoma): 13.8 µM
GI50 (MOLT-4 leukemia): 0.101 µM
TGI (MOLT-4 leukemia): 12.5 µM
GI50 (T-47D breast): 0.0853 µM
TGI (T-47D breast): 13.5 µM
GI50 (HCC-2998 colon): 0.224 µM
TGI (HCC-2998 colon): 2.04 µM
GI50 (NCI-H226 lung): 0.557 µM
TGI (NCI-H226 lung): 19.8 µM
GI50 (SN12C renal): 0.0925 µM
TGI (SN12C renal): 14.2 µM
GI50 (UO-31 renal): 0.148 µM
TGI (UO-31 renal): 14.2 µM
GI50 (CAKI-1 renal): 0.325 µM
TGI (CAKI-1 renal): 14.9 µM
GI50 (HS 578T breast): 1.33 µM
TGI (HS 578T breast): 27.1 µM
